Positions of bridges follow the written chain, without caps; N, C: chain ends. Residues, ends and D or L forms follow the SMILES beside them.
Test: The compound was tested for inhibition of streptavidin binding to the TentaGel-bound Ac-HPQFG peptide

| IC50 [µM] | Molecule |
| --- | --- |
| 0.128 | C[C@@H]1NC(=O)CC[C@@H](C(=O)N[C@@H](CCCCN)C(N)=O)NC(=O)[C@H](C)NC(=O)[C@@H]2CCCN2C(=O)[C@H](Cc2ccccc2)NC(=O)[C@H](CCC(N)=O)NC(=O)[C@@H]2CCCN2C(=O)[C@H](Cc2c[nH]cn2)NC1=O (AHPQFPAEK-NH2; lactam N-8) |
| 204 | Ac-AHPQFGAEK-NH2 |
| > 5000 | C[C@@H]1NC(=O)CC[C@@H](C(=O)N[C@@H](CCCCN)C(N)=O)NC(=O)[C@H](C)NC(=O)[C@H](Cc2ccccc2)NC(=O)[C@H](Cc2c[nH]cn2)NC(=O)CNC(=O)[C@H](Cc2ccc(O)cc2)NC(=O)[C@H](CCC(N)=O)NC1=O (AQYGHFAEK-NH2; lactam N-8) |
| 136 | Ac-AHPQFPAEK-NH2 |
| 0.73 | CC[C@H](C)[C@H](NC(=O)[C@H]1CSSC[C@H](NC(=O)[C@H](CCC(=O)O)NC(=O)[C@H](C)N)C(=O)N[C@@H](Cc2c[nH]cn2)C(=O)N2CCC[C@H]2C(=O)N[C@@H](CCC(N)=O)C(=O)NCC(=O)N2CCC[C@H]2C(=O)N2CCC[C@H]2C(=O)N1)C(=O)N[C@@H](CCC(=O)O)C(=O)NCC(=O)N[C@@H](CCCN=C(N)N)C(=O)N[C@@H](CCCCN)C(N)=O |
| 19 | C[C@@H]1NC(=O)CNC(=O)[C@H](Cc2ccccc2)NC(=O)[C@H](CCC(N)=O)NC(=O)[C@@H]2CCCN2C(=O)[C@H](Cc2c[nH]cn2)NC(=O)[C@H](C)NC(=O)CC[C@@H](C(=O)N[C@@H](CCCCN)C(N)=O)NC1=O (AHPQFGAEK-NH2; lactam N-8) |

— ChEMBL document CHEMBL1130947, “Tight-binding streptavidin ligands from a cyclic peptide library” (Bioorg Med Chem Lett, 1998)
